According to patent US20130046171A1, “DEVICE AND METHOD FOR ACCESSING AND TREATING DUCTS OF MAMMARY GLANDS” (priority 2008, published 2013):

Tests used:
[1] = tested on: ductal carcinoma in situ, MNU-induced tumor formation; assay: MNU-induced tumor formation rat model, teat infusion of anticancer agents; assay type: in vivo, Sprague Dawley rats; conditions: for incidence of tumor mass formation: within 6 months of MNU-injection; for rats with no visible masses or mammary lesions at necropsy: necropsy Day 180±2
Source text: The objective of this study was to evaluate the efficacy of five test articles (four marketed anticancer agents), administered directly into the mammary gland ducts via teat infusion, for therapy and prevention of ductal carcinoma in situ in an N-Nitroso-N-Methylurea (MNU)-induced tumor formation rat model. Based upon previous animal studies, candidates were selected for more rigorous evaluation at B Braun Biological Test Center (BTC) in Irvine, Calif. This facility was chosen to continue the preclinical work, started by Dr. Sukumar at JHU in order to support studies with a larger number of animals, in compliance with Good Laboratory Practices.
The agents were tested in 120 female Sprague Dawley rats (n=20 per treatment). On Day 1, each rat was injected intraperitoneally with MNU to induce tumor formation. […] Rats were weighed prior to MNU injection, prior to intra-ductal infusion, and once weekly throughout the study.
Rats were observed twice daily for mortality/morbidity and 1-3 times weekly for general appearance, stool appearance, signs of toxicity, and palpable mass formation until death or euthanasia. […] At necropsy, organs and tissues were grossly observed, and the entire bilateral mammary gland system, visible masses, and abnormal tissues were collected and retained in formalin.

[2] = tested on: NMU-induced tumorigenesis in mammary glands; assay: Prophylaxis of NMU-induced mammary tumorigenesis by intraductal injection; assay type: in vivo, Sprague Dawley rats; conditions: rats given NMU 50 mg/kg i.v. after treatment, monitored 8 months
Procedure: The mammary glands (6 on each side) of six virgin 50 day old Sprague Dawley rats were injected with AdHS-tk on the left side and trypan blue on the right side or left untreated. One rat remained completely untreated with the virus or GCV and served as a positive control for NMU-induced tumorigenesis. On the day of surgery, rats were given an intramuscular injection of 5 μg estradiol valerate and were anesthetized with an isofluorane/O2 mixture. The nipples were cannulated with a 33 gauge needle. Twenty μl of AdHS-tk diluted in trypan blue carrier (1 mM MgCl2, 20 μg/ml polybrene in 10% glycerol, 0.4% trypan blue in saline) at a concentration of 5×10^7 particles/μl were injected into the duct. Carrier control mammary glands received 20 μl of trypan blue carrier alone. An animal was considered treated when at least three glands were successfully injected with trypan blue and another three glands were successfully injected with AdHS-tk. The remaining glands were left untreated. Twelve hrs later, the rats were injected with 125 mg/kg body weight GCV twice daily for three days. […] Five to seven days after GCV treatment, the rats were given an intravenous injection of NMU dissolved in 0.05% acetic acid (Ash Stevens, CO; 50 mg NMU/kg body weight) and were subsequently monitored for general health and the appearance of tumors at weekly intervals for 8 months.

[3] = tested on: mammary tumors; conditions: NMU administered at 55 days of age; cited from earlier work
[4] = Dose escalation study of intraductal cytotoxic drugs in women prior to mastectomy, safety; assay type: in vivo; conditions: 300 mg dose, five subjects per group
Procedure: (§1) The study was performed in Cancer Hospital, Chinese Academy of Medical Sciences, Beijing, China where the standard of care includes a long preoperative hospital stay prior to mastectomy. Two drugs, pegylated liposomal doxorubicin (PLD) and carboplatin (C) were administered at 3 dose levels (PLD: 10, 20, 50 mg and carboplatin 60, 120, 300 mg) with the highest dose approximating the clinical intravenous dose. There were five subjects in each group with 15 subjects treated with each drug once. After informed consent, under local anesthesia subjects underwent cannulation of 5-8 ducts with intraductal instillation of the drug. Venous blood samples were obtained for pharmacokinetic analysis. The total dosage was divided by the number of cannulated ducts to yield a dose per duct. The breast was removed surgically as planned 2-5 days post treatment and the treated ducts were marked to enable identification on pathological evaluation. Intraductal administration was generally well-tolerated with mild, transient breast discomfort upon administration associated with the rate of infusion. Clinically significant laboratory adverse events were limited to decreases in hemoglobin following mastectomy, consistent with blood loss. […] In the carboplatin arm, three women at the 300 mg dose experienced mild nausea and vomiting.

[5] = Pharmacokinetic analysis of venous blood after intraductal administration; assay type: in vivo, women; conditions: intraductal carboplatin
Procedure: as §1

Compound: CC(=O)O[C@H]1C(=O)[C@@]2(C)[C@H]([C@H](OC(=O)c3ccccc3)[C@]3(O)C[C@H](OC(=O)[C@H](O)[C@@H](NC(=O)c4ccccc4)c4ccccc4)C(C)=C1C3(C)C)[C@]1(OC(C)=O)CO[C@@H]1C[C@@H]2O [Taxol®, paclitaxel]
- incidence of palpable masses during the course of the study ([1]; 0.15 mg/teat): highest and most rapid
- number of rats with masses at final observations prior to death or euthanasia ([1]; 0.15 mg/teat intraductal on Day 15): 20 of 20
- rats with visible masses at necropsy ([1]; 0.15 mg/teat, necropsied 4 months post-MNU injection, 20 rats): 20 rats
- incidence of tumor mass formation ([1]; 0.15 mg/teat): highest incidence of mass formation

Compound: Nc1nc(O)c2ncn(COC(CO)CO)c2n1 [No injection; Ganciclovir, Ganciclovir]
- % of Glands with Tumor [2]: 25.0%
- No. of Tumors [2]: 5

Compound: CN(N=O)C(N)=O [NMU, N-Nitroso-N-Methylurea]
- female rats that develop mammary tumors [3]: 90-100%

Compound: N.N.O=C([O-])C1(C(=O)[O-])CCC1.[Pt+2] [carboplatin]
- rats with no visible masses or mammary lesions at necropsy ([1]; 0.42 mg/teat): 5 of 20
- incidence of palpable masses during the course of the study ([1]; 0.75 mg/teat): lowest and least rapid
- number of rats with masses at final observations prior to death or euthanasia ([1]; 0.75 mg/teat intraductal on Day 15): 11 of 20
- rats with no visible masses or mammary lesions at necropsy ([1]; 0.75 mg/teat): 7 of 19
- incidence of tumor mass formation ([1]; 0.75 mg/teat): lowest incidence of tumor mass formation
- mild nausea and vomiting [4]: three
- plasma ultrafiltrate AUC (area under the curve) [5]: consistent with the Calvert Formula using estimated GFR
- peak time (tmax) ([5]; systemic circulation): ~30 min
